Measured values as given in ChEMBL document CHEMBL1157447, “Discovery and biological evaluation of novel alpha-glucosidase inhibitors with in vivo antidiabetic effect” (2008).

Experiments:
[1] = tested on: Saccharomyces cerevisiae; assay: Inhibition of alpha glucosidase from baker's yeast at 50 uM
[2] = tested on: Rattus norvegicus; assay: Antidiabetic activity in po dosed Streptozotocin induced diabetic Sprague-Dawley rat assessed as decrease in serum glucose level after 60 mins; assay type: functional; design: concentration or dose not given beside the values
[3] = tested on: Rattus norvegicus; assay: Antidiabetic activity in po dosed Streptozotocin induced diabetic Sprague-Dawley rat assessed as decrease in serum glucose level after 120 mins; assay type: functional; design: scale not given: the % may be the effect or the level left

SMILES | inhibition [1] [%] | Activity [2] [%] | Activity [3] [%]
C[C@H]1O[C@H](O[C@H]2[C@H](O)[C@@H](O)[C@@H](OC3[C@@H](CO)OC(O)[C@H](O)[C@H]3O)O[C@@H]2CO)[C@H](O)[C@@H](O)[C@@H]1N[C@H]1C=C(CO)[C@@H](O)[C@H](O)[C@H]1O (single isomer, unassigned) | 88.1 |  | 
Cc1ccc(Nc2nc(N)nc(COc3cccc4cccnc34)n2)cc1 | 78.9 | 20 | 
COc1ccc(N2C(=O)NC(=O)/C(=C\c3cccn3CCOc3cccc(C)c3)C2=O)cc1Cl | 88.7 | 5 | 23
CCc1ccc(N2C(=O)NC(=O)/C(=C\c3cccn3CCOc3cccc(C)c3)C2=O)cc1 | 86 | 20 | 
N#C/C(=C\Nc1cccc(F)c1)c1nc(-c2cc3ccccc3oc2=O)cs1 | 75.2 | 20 | 
